Reference: ChEMBL document CHEMBL5321293, “Discovery of ERD-3111 as a Potent and Orally Efficacious Estrogen Receptor PROTAC Degrader with Strong Antitumor Activity” (J Med Chem, 2023)

Legend:
[1] = Cmax in ICR mouse at 3 mg/kg, po and measured upto 24 hrs by LC-MS/MS analysis; type: ADME, organism-based; parameters: dose 3 mg/kg, time < 24 hrs, route po; details: in vivo
[2] = Oral bioavailability in Beagle dog at 1 mg/kg and measured upto 24 hrs by LC-MS/MS analysis; type: ADME, organism-based, Canis lupus familiaris; details: in vivo
[3] = molecular target: Protein cereblon/Estrogen receptor (Homo sapiens, UniProt P03372+Q96SW2); test: Protac activity at human ERalpha in ER positive human MCF7 cells assessed as reduction in ERalpha protein level at 0.1 to 30 nM by Western blot analysis; type: cell-based; details: dose 0.1-30 nM
[4] = Metabolic stability in human liver microsomes assessed as half life at 1 uM and measured upto 60 mins in presence of NADPH by LC-MS/MS analysis; type: ADME, Microsome
[5] = molecular target: Voltage-gated inwardly rectifying potassium channel KCNH2 (Homo sapiens, UniProt Q12809); test: Inhibition of human ERG in human HEK293 cells incubated for 5 mins by patch clamp assay; type: toxicity, cell-based
[6] = molecular target: Cytochrome P450 2D6 (Homo sapiens, UniProt P10635); test: Inhibition of CYP2D6 in human liver microsomes preincubated for 5 mins in presence substrate followed by NADPH addition and measured after 10 mins by LC-MS/MS analysis; type: ADME, Microsome
[7] = molecular target: Cytochrome P450 3A4 (Homo sapiens, UniProt P08684); test: Inhibition of CYP3A4 in human liver microsomes using testosterone as substrate preincubated for 5 mins followed by NADPH addition and measured after 10 mins by LC-MS/MS analysis; type: ADME, Microsome
[8] = Drug concentration in plasma of CB17 SCID mouse xenografted with human MCF7 cells harboring wild type ESR1 at 10 mg/kg, po qd for 3 days and measured after 6 hrs last dose by LC-MS/MS analysis; type: ADME, organism-based; details: time 3 day
[9] = Drug concentration in plasma of CB17 SCID mouse xenografted with human MCF7 cells harboring wild type ESR1 at 30 mg/kg, po qd for 3 days and measured after 24 hrs last dose by LC-MS/MS analysis; type: ADME, organism-based; details: time 3 day
[10] = Drug concentration in tumor of CB17 SCID mouse xenografted with human MCF7 cells harboring wild type ESR1 at 10 mg/kg, po qd for 3 days and measured after 6 hrs last dose by LC-MS/MS analysis; type: ADME, organism-based, Neoplasm; details: time 3 day, read-out: Ct
[11] = Drug concentration in tumor of CB17 SCID mouse xenografted with human MCF7 cells harboring wild type ESR1 at 10 mg/kg, po qd for 3 days and measured after 24 hrs last dose by LC-MS/MS analysis; type: ADME, organism-based, Neoplasm; details: time 3 day, read-out: Ct
[12] = Drug concentration in tumor of CB17 SCID mouse xenografted with human MCF7 cells harboring wild type ESR1 at 30 mg/kg, po qd for 3 days and measured after 3 hrs last dose by LC-MS/MS analysis; type: ADME, organism-based, Neoplasm; details: time 3 day, read-out: Ct
[13] = Downregulation of ERalpha protein expression in tumor of CB17 SCID mouse xenografted with human MCF7 cells harboring ESR1 Y537S mutant at 10 mg/kg, po qd for 3 days and measured after 6 hrs last dose by Western blot analysis relative to control; type: functional; details: time 3 day
[14] = Drug concentration in plasma of CB17 SCID mouse xenografted with human MCF7 cells harboring ESR1 Y537S mutant at 30 mg/kg, po qd for 3 days and measured after 6 hrs last dose by LC-MS/MS analysis; type: ADME, organism-based; details: time 3 day
[15] = Drug concentration in plasma of CB17 SCID mouse xenografted with human MCF7 cells harboring ESR1 D538G mutant at 10 mg/kg, po qd for 3 days and measured after 6 hrs last dose by LC-MS/MS analysis; type: ADME, organism-based; details: time 3 day
[16] = system: MCF7; test: Antitumor activity against human MCF7 cells harboring ESR1 Y537S mutant xenografted in CB17 SCID mouse assessed as tumor growth inhibition at 10 mg/kg, po qd for 4 weeks; type: functional; details: MCF7, 672 h, read-out: TGI
[17] = Toxicity in CB17 SCID mouse xenografted with human MCF7 cells harboring ESR1 Y537S mutant assessed as body weight change at 30 mg/kg,po qd for 4 weeks; type: organism-based; details: in vivo, 672 h
[18] = Toxicity in CB17 SCID mouse xenografted with human MCF7 cells harboring ESR1 D538G mutant assessed as body weight change at 10 mg/kg,po qd for 4 weeks; type: organism-based; details: in vivo, 672 h
[19] = Toxicity in CB17 SCID mouse xenografted with human MCF7 cells harboring ESR1 D538G mutant assessed as body weight change at 30 mg/kg,po qd for 4 weeks; type: organism-based; details: in vivo, 672 h
[20] = in vivo; details: Sprague-Dawley, rat, po, 3 mg/kg

Sequence of Voltage-gated inwardly rectifying potassium channel KCNH2 (Q12809 whole entry): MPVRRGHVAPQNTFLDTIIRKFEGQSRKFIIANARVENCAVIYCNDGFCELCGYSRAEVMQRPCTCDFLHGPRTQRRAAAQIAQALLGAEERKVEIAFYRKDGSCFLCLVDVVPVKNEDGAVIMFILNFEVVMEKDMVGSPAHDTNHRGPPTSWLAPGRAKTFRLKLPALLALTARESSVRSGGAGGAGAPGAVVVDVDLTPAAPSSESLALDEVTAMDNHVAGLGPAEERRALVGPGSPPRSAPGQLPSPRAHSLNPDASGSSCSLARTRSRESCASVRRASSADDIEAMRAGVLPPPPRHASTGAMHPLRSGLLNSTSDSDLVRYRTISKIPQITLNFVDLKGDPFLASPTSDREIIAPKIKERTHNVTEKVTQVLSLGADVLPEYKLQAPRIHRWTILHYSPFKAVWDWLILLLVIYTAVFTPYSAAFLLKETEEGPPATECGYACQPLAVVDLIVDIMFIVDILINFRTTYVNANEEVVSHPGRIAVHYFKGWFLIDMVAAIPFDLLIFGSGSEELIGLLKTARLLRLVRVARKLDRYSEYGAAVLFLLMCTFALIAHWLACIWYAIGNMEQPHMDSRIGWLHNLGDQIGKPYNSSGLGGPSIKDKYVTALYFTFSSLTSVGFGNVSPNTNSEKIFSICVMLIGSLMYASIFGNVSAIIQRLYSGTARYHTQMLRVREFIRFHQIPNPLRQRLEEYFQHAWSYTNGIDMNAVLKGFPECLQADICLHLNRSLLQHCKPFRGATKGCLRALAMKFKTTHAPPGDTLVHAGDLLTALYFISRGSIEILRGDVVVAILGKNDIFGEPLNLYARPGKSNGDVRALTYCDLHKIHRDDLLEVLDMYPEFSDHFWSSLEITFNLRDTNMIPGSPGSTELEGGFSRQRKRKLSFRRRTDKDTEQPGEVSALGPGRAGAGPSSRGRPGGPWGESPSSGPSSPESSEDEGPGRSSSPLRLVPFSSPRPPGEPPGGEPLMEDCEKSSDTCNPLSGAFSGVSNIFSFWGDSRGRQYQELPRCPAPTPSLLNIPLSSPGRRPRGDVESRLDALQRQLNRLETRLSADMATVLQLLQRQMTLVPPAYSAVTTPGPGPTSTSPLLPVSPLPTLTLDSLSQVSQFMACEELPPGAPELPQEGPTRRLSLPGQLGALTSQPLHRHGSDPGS
Sequence of Cytochrome P450 3A4 (P08684 whole entry): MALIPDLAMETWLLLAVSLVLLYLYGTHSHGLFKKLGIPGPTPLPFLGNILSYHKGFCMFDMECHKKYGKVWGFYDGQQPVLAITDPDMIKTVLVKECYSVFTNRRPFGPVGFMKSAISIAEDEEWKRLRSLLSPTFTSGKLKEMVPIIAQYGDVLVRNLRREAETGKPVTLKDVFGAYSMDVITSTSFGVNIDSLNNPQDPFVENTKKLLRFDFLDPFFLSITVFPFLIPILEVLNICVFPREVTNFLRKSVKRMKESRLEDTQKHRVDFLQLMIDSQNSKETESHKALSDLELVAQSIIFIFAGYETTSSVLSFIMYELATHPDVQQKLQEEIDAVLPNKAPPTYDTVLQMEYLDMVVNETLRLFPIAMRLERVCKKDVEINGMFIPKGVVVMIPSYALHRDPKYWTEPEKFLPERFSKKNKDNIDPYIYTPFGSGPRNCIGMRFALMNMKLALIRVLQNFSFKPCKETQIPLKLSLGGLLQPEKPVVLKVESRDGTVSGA
Sequence of Protein cereblon/Estrogen receptor (P03372 whole entry, looked up): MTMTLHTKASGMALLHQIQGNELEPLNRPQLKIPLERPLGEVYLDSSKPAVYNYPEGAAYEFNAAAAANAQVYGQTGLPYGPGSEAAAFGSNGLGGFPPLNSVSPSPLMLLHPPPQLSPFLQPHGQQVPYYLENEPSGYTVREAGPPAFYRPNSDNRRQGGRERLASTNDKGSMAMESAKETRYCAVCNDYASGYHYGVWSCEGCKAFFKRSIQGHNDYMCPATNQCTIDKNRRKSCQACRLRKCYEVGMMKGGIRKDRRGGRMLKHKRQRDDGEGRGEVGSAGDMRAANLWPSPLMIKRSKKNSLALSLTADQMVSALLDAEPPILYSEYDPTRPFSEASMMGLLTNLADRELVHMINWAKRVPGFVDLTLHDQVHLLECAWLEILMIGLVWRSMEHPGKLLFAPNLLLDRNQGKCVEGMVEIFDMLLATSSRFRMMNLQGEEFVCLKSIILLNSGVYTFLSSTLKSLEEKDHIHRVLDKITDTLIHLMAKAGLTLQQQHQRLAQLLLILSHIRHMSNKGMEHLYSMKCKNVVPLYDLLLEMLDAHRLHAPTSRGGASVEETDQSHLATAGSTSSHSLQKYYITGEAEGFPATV
Sequence of Protein cereblon/Estrogen receptor (Q96SW2 whole entry, looked up): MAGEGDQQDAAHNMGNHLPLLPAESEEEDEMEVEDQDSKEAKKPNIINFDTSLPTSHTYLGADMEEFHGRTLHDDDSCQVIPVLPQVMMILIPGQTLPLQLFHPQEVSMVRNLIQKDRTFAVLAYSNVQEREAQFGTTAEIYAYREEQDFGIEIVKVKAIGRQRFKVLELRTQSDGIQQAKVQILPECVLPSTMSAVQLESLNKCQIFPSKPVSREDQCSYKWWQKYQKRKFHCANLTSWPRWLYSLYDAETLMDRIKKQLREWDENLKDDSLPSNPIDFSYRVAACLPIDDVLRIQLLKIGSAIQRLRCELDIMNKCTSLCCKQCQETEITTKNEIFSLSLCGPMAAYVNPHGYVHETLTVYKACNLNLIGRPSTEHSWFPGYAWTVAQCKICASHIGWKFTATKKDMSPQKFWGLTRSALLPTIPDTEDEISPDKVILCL
Sequence of Cytochrome P450 2D6 (P10635 whole entry): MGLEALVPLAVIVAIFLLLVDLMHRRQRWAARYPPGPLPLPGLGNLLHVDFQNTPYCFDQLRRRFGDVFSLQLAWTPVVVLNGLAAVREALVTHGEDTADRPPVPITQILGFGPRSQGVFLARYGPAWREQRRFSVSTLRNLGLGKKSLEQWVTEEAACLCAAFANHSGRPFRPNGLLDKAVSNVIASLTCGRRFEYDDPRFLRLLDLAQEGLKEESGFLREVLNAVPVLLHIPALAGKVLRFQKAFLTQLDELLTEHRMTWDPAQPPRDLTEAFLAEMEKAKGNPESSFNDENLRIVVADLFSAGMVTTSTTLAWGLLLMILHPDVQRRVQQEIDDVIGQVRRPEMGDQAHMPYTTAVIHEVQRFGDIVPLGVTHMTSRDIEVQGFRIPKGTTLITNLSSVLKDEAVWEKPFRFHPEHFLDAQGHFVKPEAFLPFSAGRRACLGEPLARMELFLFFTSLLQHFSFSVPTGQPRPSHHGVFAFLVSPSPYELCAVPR

- Cmax [1]: 260 ng/mL
- bioavailability [2]: 66%
- Activity [3]: Dose-Dependent Effect
- half-life at 1 µM [4]: > 1 h
- IC50 [6]: > 10 µM
- IC50 [7]: > 10 µM
- concentration at 72 h [8]: 433 ng/mL
- concentration at 72 h [9]: 80 ng/mL
- concentration at 72 h [10]: 385 ng/mL
- concentration at 72 h [11]: 162 ng/mL
- concentration at 72 h [12]: 1410 ng/mL
- concentration at 72 h [14]: 2830 ng/mL
- concentration at 72 h [15]: 609 ng/mL
- bioavailability at 24 h [20]: 20%
Structure (SMILES): C[C@@H]1Cc2c(ccc3[nH]ncc23)[C@@H](c2c(F)cc(N3CCC4(CCN(C(=O)CN5Cc6cc7c(cc6C5)C(=O)N(C5CCC(=O)NC5=O)C7=O)CC4)CC3)cc2F)N1CC(F)F (stereo not given in full)
- IC50 [5]: > 30 µM
- Activity [13]: 70%
- inhibition in vivo at 10 mg/kg [16]: 72%
- Activity [17]: Non-Toxic
- Activity [18]: Non-Toxic
- Activity [19]: Non-Toxic
